Results published in paper PMC11500415, “Chemical inhibition of stomatal differentiation by perturbation of the master-regulatory bHLH heterodimer via an ACT-Like domain” (Nature Communications, 2024).

Experiments:
SCRM-SPCH heterodimer = molecular target: T1, SCRM-SPCH heterodimer (Arabidopsis thaliana, UniProt Q700C7); assay type: cell-based; conditions: 100 μM, 1 day
T1 construct: heterodimerization of SCRM with full-length SPCH, MUTE, or FAMA in the context of the plant cells; combinations of split YFP constructs fused to the full-length stomatal bHLH proteins; nYFP (N terminus of EYFP, 174 amino acids); cYFP (C terminus of EYFP, 64 amino acids); expressed in transfected cells; host or cells: Nicotiana benthamiana leaves (Agrobacterium infiltration)
T1 sequence (Q700C7 1-364): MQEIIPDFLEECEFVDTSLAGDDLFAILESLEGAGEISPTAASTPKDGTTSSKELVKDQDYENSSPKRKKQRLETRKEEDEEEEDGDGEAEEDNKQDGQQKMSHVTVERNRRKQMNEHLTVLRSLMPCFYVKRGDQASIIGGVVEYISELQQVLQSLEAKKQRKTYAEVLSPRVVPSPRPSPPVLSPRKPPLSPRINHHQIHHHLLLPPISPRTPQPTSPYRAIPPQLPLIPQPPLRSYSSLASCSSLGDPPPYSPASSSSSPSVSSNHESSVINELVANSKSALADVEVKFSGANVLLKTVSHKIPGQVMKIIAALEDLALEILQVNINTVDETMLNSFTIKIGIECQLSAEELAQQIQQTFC
Text: For ratiometric BiFC assays, the cDNAs of SPCH, MUTE, and FAMA were cloned into the 35S CaMV promoter-driven destination vector pSPYNE, which contains the N terminus of the EYFP protein (nYFP-174 amino acids), while the cDNA of SCRM and SCRM2 was inserted into pSPYCE, which contains the C terminus of the EYFP protein (cYFP-64 amino acids) (see Supplementary Table 5 for detailed information of the constructs). The constructs were then transformed into Agrobacterium tumefaciens strain GV3101. The Agrobacterium was resuspended in infiltration buffer (10 mM MgCl2, 10 mM 2-(N-morpholino)ethanesulfonic acid [pH 5.6], and 150 µM acetosyringone). Bacterial culture densities were adjusted to a final optical density (OD600) of 1.0, and the cell suspensions were incubated at room temperature for 4 hours prior to infiltration. Equal volumes of cultures carrying the corresponding complementary pair of BiFC constructs (YFPn and YFPc), along with CaMV35S::Histone H2B-mScarlet-I3 and the silencing suppressor plasmid p19 (a gift from Dr. Sir David Baulcombe) were mixed and then co-infiltrated into 4-week-old N. benthamiana leaves. The infiltrated N. benthamiana leaves were incubated at 25 °C for 2 days. Subsequently, leaf discs were cut out and cultured in mock or in liquid 1/2 MS media in mock (DMSO) or 100 µM Stomidazolone for 1 day. Confocal imaging of N. benthamiana leaves was performed using a Leica SP8 confocal microscope using a 20X objective lens (Leica Microsystems), simultaneously capturing YFP (excitation at 518 nm and emission at 530 nm) and mScarlet-I3 (excitation at 569 nm and emission at 600 nm) differential interference contrast channels.

MUTE = molecular target: T2, MUTE (Arabidopsis thaliana, UniProt Q9M8K6); assay: ITC direct binding; parameters: species or system A. thaliana
T2 construct: MUTE (1-202); made in house; host or cells: E. coli BL21
T2 sequence (Q9M8K6 whole entry): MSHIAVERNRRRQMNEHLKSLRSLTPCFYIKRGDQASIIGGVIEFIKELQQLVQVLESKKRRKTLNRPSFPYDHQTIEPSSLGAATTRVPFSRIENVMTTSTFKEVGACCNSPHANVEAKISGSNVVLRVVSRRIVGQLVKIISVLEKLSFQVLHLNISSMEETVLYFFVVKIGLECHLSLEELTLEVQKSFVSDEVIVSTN
Text: (§1) A. thaliana SCRM (1-494), ΔNSPCH (98-364), MUTE (1-202), ΔNFAMA (190-414), MUTEΔC (1-114), MUTER133A_R134A, MUTEE162A_E163A, MUTER133A_R134A_E162A_E163A, SCRM-ACTL (405-494), MUTE-ACTL (114-202), SPCH-ACTL (285-364), FAMA-ACTL (306-414), MUTE_ACTLR133A_R134A, MUTE_ACTLE162A_E163A, MUTE_ACTLR133A_R134A_E162A_E163A were cloned into pGEX-4T-1 vector with an N-terminal GST tag and a thrombin cleavage sequence. For protein expression, the constructs were transformed into E. coli strain BL21. For each transformant, a single colony was selected and incubated in 10 ml LB liquid media. The overnight-incubated E. coli suspensions were transferred to 1 L LB medium and incubated at 37 °C for around 2 h until the OD600 reached 0.4–0.6. The isopropyl β-D-1-thiogalactopyranoside ([…] of final concentration) was added to the cultures and the strains were incubated at 22 °C for a further 18 h. GST-fused proteins were purified using glutathione agarose resin. The soluble portion of the cell lysate was loaded onto a GST-Sepharose column. Nonspecifically bound proteins were removed by washing the column with 20 mM Tris pH 8.0, 200 mM NaCl. The bound GST-fused protein was eluted with 10 mm glutathione and 20 mM Tris pH 8.0, 200 mM NaCl. The GST-fused proteins were exchanged with phosphate-buffered saline buffer, and then the solution was treated with 50 μg of thrombin for 10–12 h at 16 ^οC. The GST portion of the protein was cleaved during thrombin digestion, and then the whole solution was reloaded onto the glutathione S-transferase column to obtain pure protein. The purified proteins were further purified by gel filtration on a Superdex-200 (GE) column using fast protein liquid chromatography and phosphate buffer (pH 7.2) as the eluent. The purity of the protein was checked by SDS-PAGE. For detailed lists of oligo DNA and plasmid information, see Supplementary Tables 5, 6, respectively.
(§2) Binding of the small molecule Stomidazolone (3) to SCRM, MUTE, SPCH, FAMA, MUTEΔC, MUTE_ACTL, SCRM_ACTL, SPCH_ACTL and FAMA_ACTL, MUTER133A_R134A, MUTEE162A_E163A, MUTER133A_R134A_E162A_E163A, as well as SCRM binding to MUTE in the presence and absence of Stomidazolone (3) / AYSJ1059 (5) /AYSJ1061 (6) was characterized at 30 °C using a Malvern PEAQ-ITC microcalorimeter. All the protein samples were dialyzed overnight using PBS buffer containing 2% DMSO and 1 mM DTT. Stomidazolone was dissolved in PBS buffer containing 2% DMSO and 1 mM DTT. Titrations were performed by injecting 1 × 0.5-μL and 12 × 3-μL or 1 × 0.75-μL and 18 × 2-μL or 1 × 0.2-μL and 25 × 1.3-μL aliquots of 1 mM Stomidazolone / AYSJ1059 / AYSJ1061 to 5-30 μM of protein in PBS buffer pH 7.4, containing 2% DMSO and 1 mM DTT. All titrations were carried out at least twice. The raw data were corrected using buffer and protein controls and analyzed using the software supplied by the manufacturer. See Supplementary Table 3 for details.

SPCH = molecular target: T3, SPCH (Arabidopsis thaliana, UniProt Q700C7); assay: ITC direct binding; parameters: species or system A. thaliana
T3 construct: ΔNSPCH (98-364); made in house; host or cells: E. coli BL21
Text: as §1, §2

Structure (SMILES): O=C1C(c2ccccc2)=NC(NS(=O)(=O)c2ccccc2)(c2ccccc2)N1S(=O)(=O)c1ccccc1 (stereo not drawn) [Stomidazolone]
- effect on heterodimerization, YFP/RFP signal ratio (in words) (SCRM-SPCH heterodimer): weakly affecting
- -T△S (MUTE): 17.3 ± 0.4
- Kd (MUTE): 7.8 ± 1.1 µM
- △G (MUTE): -3.3 ± 0.2
- △H (MUTE): -20.6 ± 0.4
- -T△S (SPCH): 3.6 ± 0.2
- Kd (SPCH): 79.6 ± 3.6 µM
- △G (SPCH): -2.6 ± 0.2
- △H (SPCH): -6.2 ± 0.5
